# Experiments:
# Assay type in all cases: in vivo
# Glycine max = experiment: Test Example 4: effect on crop by application to foliage (diluvial soil, plastic box); conditions: for c (Glycine max) effect on crop grade: 320 g/ha; for d: effect on crop, Glycine max: application to foliage, application herbicide amount 320 g/ha; for c: effect on crop
# Method in brief: (§1)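 Read-out is a 0–5 visual grade of herbicidal ratio (5: ≥90%, almost withered; 0: ≤5%) taken three weeks after treatment. Compound was applied as a diluted emulsion to stem and leaf parts of 14-day greenhouse-grown plants (25° C. to 30° C.) at rates expressed as g/ha.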
# [1] = system: directly sowed Oryza sativa; experiment: as above; conditions: for d (directly sowed Oryza sativa) effect on crop grade: 320 g/ha; for b: effect on crop, directly sowed Oryza sativa: application to foliage, application herbicide amount 320 g/ha; for d: effect on crop
# Method in brief: as §1
# Triticum aestivum = experiment: as above; conditions: for e (Triticum aestivum) effect on crop grade: foliage application; for e: effect on crop, Triticum aestivum: application to foliage, application herbicide amount 320 g/ha; for e: effect on crop
# Method in brief: as §1
# [2] = system: Beta vulgaris ssp. vulgaris; experiment: as above; conditions: for f (Beta vulgaris ssp. vulgaris) effect on crop grade: foliage application; for f: effect on crop, Beta vulgaris ssp. vulgaris: application to foliage, application herbicide amount 320 g/ha; for f: effect on crop
# Method in brief: as §1
# Zea mays = experiment: as above; conditions: for b (Zea mays) effect on crop grade: 320 g/ha; for c: effect on crop, Zea mays: application to foliage, application herbicide amount 320 g/ha; for b: effect on crop
# Method in brief: as §1
# Brassica campestris L. = experiment: as above; conditions: for g (Brassica campestris L.) effect on crop grade: foliage application; for g: effect on crop, Brassica campestris L.: application to foliage, application herbicide amount 320 g/ha; for g: effect on crop
# Method in brief: as §1
# [3] = system: directly sowed Oryza sativa; experiment: Test Example 3: effect on crop by application to foliage (Wagner pot, water depth 0.1-0.5 cm); conditions: Nineteenth Table; application to foliage; application herbicide amount 320 g/ha
# Method in brief: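 Seeds were sown in alluvial soil in Wagner pots, grown for 14 days at 25–30 °C, then sprayed uniformly on foliage with the emulsified compound diluted to a given rate per hectare. Injury was graded three weeks after treatment from 0 (≤5%) to 5 (≥90%).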
# Monochoria vaginalis = experiment: Test Example 2: herbicidal activity, application during weed generation in submerged conditions; conditions: Eighteenth Table; application herbicide amount 320 g/ha
# Method in brief: (§2)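 Paddy-type pot test: flooded soil, 4 cm depth, greenhouse 25–30 °C. Emulsion formulation diluted in water, applied to water surface at 1–2 leaf stage; rate expressed as g/ha. Read-out at 3 wk, 0–5 score.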
# Scirpus juncoides = experiment: as above; conditions: Eighteenth Table; application herbicide amount 320 g/ha
# Method in brief: as §2
# [4] = Application herbicide amount 320 g/ha
# [5] = Application herbicide amount 320 g/ha, foliage application
smiles,measurement,setting,value
Cn1nnnc1NC(=O)c1ccc(C(F)(F)F)n2c(CSCC(F)(F)F)nnc12 [2-030],c (Glycine max) effect on crop grade,Glycine max; foliage application,0 (Herbicidal ratio of 5% or less (almost no effect))
same,d (directly sowed Oryza sativa) effect on crop grade,[1]; foliage application,4 (Herbicidal ratio of 70% or more and less than 90%)
same,e (Triticum aestivum) effect on crop grade,Triticum aestivum; 320 g/ha,3 (Herbicidal ratio of 40% or more and less than 70%)
same,f (Beta vulgaris ssp. vulgaris) effect on crop grade,[2]; 320 g/ha,5 (Herbicidal ratio of 90% or more (almost completely withered))
same,b (Zea mays) effect on crop grade,Zea mays; foliage application,5 (Herbicidal ratio of 90% or more (almost completely withered))
same,g (Brassica campestris L.) effect on crop grade,Brassica campestris L.; 320 g/ha,5 (Herbicidal ratio of 90% or more (almost completely withered))
same,b (effect on crop grade),[3],5 (Herbicidal ratio of 90% or more (almost completely withered))
same,C (Monochoria vaginalis) herbicidal ratio grade,Monochoria vaginalis,4 (Herbicidal ratio of 70% or more and less than 90%)
same,B (Scirpus juncoides) herbicidal ratio grade,Scirpus juncoides,3 (Herbicidal ratio of 40% or more and less than 70%)
"COCc1nnc2c(C(=O)Nc3nnnn3C)ccc(C(F)(F)F)n12 [2-010, 3-(Methoxymethyl)-N-(1-methyl-1H-tetrazol-5-yl)-5-(trifluoromethyl)-[1,2,4]triazol o[4,3-a]pyridine-8-carboxamide]","d: effect on crop, Glycine max",Glycine max,4 (Herbicidal ratio of 70% or more and less than 90%)
same,"b: effect on crop, directly sowed Oryza sativa",[1],5 (Herbicidal ratio of 90% or more (almost completely withered))
same,"e: effect on crop, Triticum aestivum",Triticum aestivum,3 (Herbicidal ratio of 40% or more and less than 70%)
same,"f: effect on crop, Beta vulgaris ssp. vulgaris",[2],5 (Herbicidal ratio of 90% or more (almost completely withered))
same,"c: effect on crop, Zea mays",Zea mays,3 (Herbicidal ratio of 40% or more and less than 70%)
same,"g: effect on crop, Brassica campestris L.",Brassica campestris L.,5 (Herbicidal ratio of 90% or more (almost completely withered))
same,b (effect on crop grade),[3],5 (Herbicidal ratio of 90% or more (almost completely withered))
same,C (Monochoria vaginalis) herbicidal ratio grade,Monochoria vaginalis,4 (Herbicidal ratio of 70% or more and less than 90%)
same,B (Scirpus juncoides) herbicidal ratio grade,Scirpus juncoides,4 (Herbicidal ratio of 70% or more and less than 90%)
COC1CCC(c2nnc3c(C(=O)Nc4nnc(C)o4)ccc(C(F)(F)F)n23)CC1 (stereo not drawn) [1-169],"d: effect on crop, Glycine max",Glycine max,5 (Herbicidal ratio of 90% or more (almost completely withered))
same,"b: effect on crop, directly sowed Oryza sativa",[1],0 (Herbicidal ratio of 5% or less (almost no effect))
same,"e: effect on crop, Triticum aestivum",Triticum aestivum,1 (Herbicidal ratio of 5% or more and less than 20%)
same,"f: effect on crop, Beta vulgaris ssp. vulgaris",[2],5 (Herbicidal ratio of 90% or more (almost completely withered))
same,"c: effect on crop, Zea mays",Zea mays,1 (Herbicidal ratio of 5% or more and less than 20%)
same,"g: effect on crop, Brassica campestris L.",Brassica campestris L.,0 (Herbicidal ratio of 5% or less (almost no effect))
same,b (effect on crop grade),[3],1 (Herbicidal ratio of 5% or more and less than 20%)
same,C (Monochoria vaginalis) herbicidal ratio grade,Monochoria vaginalis,4 (Herbicidal ratio of 70% or more and less than 90%)
same,B (Scirpus juncoides) herbicidal ratio grade,Scirpus juncoides,4 (Herbicidal ratio of 70% or more and less than 90%)
CCCc1nnc2c(C(=O)Nc3nnnn3C)ccc(C(F)(F)F)n12 [2-019],"d: effect on crop, Glycine max",Glycine max,4 (Herbicidal ratio of 70% or more and less than 90%)
same,"b: effect on crop, directly sowed Oryza sativa",[1],4 (Herbicidal ratio of 70% or more and less than 90%)
same,"e: effect on crop, Triticum aestivum",Triticum aestivum,3 (Herbicidal ratio of 40% or more and less than 70%)
same,"f: effect on crop, Beta vulgaris ssp. vulgaris",[2],5 (Herbicidal ratio of 90% or more (almost completely withered))
same,"c: effect on crop, Zea mays",Zea mays,0 (Herbicidal ratio of 5% or less (almost no effect))
same,"g: effect on crop, Brassica campestris L.",Brassica campestris L.,4 (Herbicidal ratio of 70% or more and less than 90%)
same,b (effect on crop grade),[3],5 (Herbicidal ratio of 90% or more (almost completely withered))
same,C (Monochoria vaginalis) herbicidal ratio grade,Monochoria vaginalis,4 (Herbicidal ratio of 70% or more and less than 90%)
same,B (Scirpus juncoides) herbicidal ratio grade,Scirpus juncoides,3 (Herbicidal ratio of 40% or more and less than 70%)
COCCSc1nnc2c(C(=O)Nc3nnc(C)o3)ccc(C(F)(F)F)n12 [1-063],c,Glycine max; [4],3 (Herbicidal ratio of 40% or more and less than 70%)
same,d,[1]; [4],4 (Herbicidal ratio of 70% or more and less than 90%)
same,e,Triticum aestivum; [4],2 (Herbicidal ratio of 20% or more and less than 40%)
same,f,[2]; [4],5 (Herbicidal ratio of 90% or more (almost completely withered))
same,b,Zea mays; [4],0 (Herbicidal ratio of 5% or less (almost no effect))
same,g,Brassica campestris L.; [4],3 (Herbicidal ratio of 40% or more and less than 70%)
same,b (effect on crop grade),[3],2 (Herbicidal ratio of 20% or more and less than 40%)
same,C (Monochoria vaginalis) herbicidal ratio grade,Monochoria vaginalis,2 (Herbicidal ratio of 20% or more and less than 40%)
same,B (Scirpus juncoides) herbicidal ratio grade,Scirpus juncoides,3 (Herbicidal ratio of 40% or more and less than 70%)
CSCc1nnc2c(C(=O)Nc3nnnn3C)ccc(C(F)(F)F)n12 [2-029],c (Glycine max) effect on crop grade,Glycine max; foliage application,4 (Herbicidal ratio of 70% or more and less than 90%)
same,d (directly sowed Oryza sativa) effect on crop grade,[1]; foliage application,5 (Herbicidal ratio of 90% or more (almost completely withered))
same,e (Triticum aestivum) effect on crop grade,Triticum aestivum; 320 g/ha,5 (Herbicidal ratio of 90% or more (almost completely withered))
same,f (Beta vulgaris ssp. vulgaris) effect on crop grade,[2]; 320 g/ha,5 (Herbicidal ratio of 90% or more (almost completely withered))
same,b (Zea mays) effect on crop grade,Zea mays; foliage application,5 (Herbicidal ratio of 90% or more (almost completely withered))
same,g (Brassica campestris L.) effect on crop grade,Brassica campestris L.; 320 g/ha,5 (Herbicidal ratio of 90% or more (almost completely withered))
same,b (effect on crop grade),[3],5 (Herbicidal ratio of 90% or more (almost completely withered))
same,C (Monochoria vaginalis) herbicidal ratio grade,Monochoria vaginalis,4 (Herbicidal ratio of 70% or more and less than 90%)
same,B (Scirpus juncoides) herbicidal ratio grade,Scirpus juncoides,4 (Herbicidal ratio of 70% or more and less than 90%)
Cc1nnc(NC(=O)c2ccc(C(F)(F)F)n3c(-c4cc5ccccc5n4C)nnc23)o1 [1-059],c,Glycine max; [4],0 (Herbicidal ratio of 5% or less (almost no effect))
same,d,[1]; [4],0 (Herbicidal ratio of 5% or less (almost no effect))
same,e,Triticum aestivum; [4],0 (Herbicidal ratio of 5% or less (almost no effect))
same,f,[2]; [4],0 (Herbicidal ratio of 5% or less (almost no effect))
same,b,Zea mays; [4],0 (Herbicidal ratio of 5% or less (almost no effect))
same,g,Brassica campestris L.; [4],0 (Herbicidal ratio of 5% or less (almost no effect))
same,b (effect on crop grade),[3],0 (Herbicidal ratio of 5% or less (almost no effect))
same,C (Monochoria vaginalis) herbicidal ratio grade,Monochoria vaginalis,2 (Herbicidal ratio of 20% or more and less than 40%)
same,B (Scirpus juncoides) herbicidal ratio grade,Scirpus juncoides,3 (Herbicidal ratio of 40% or more and less than 70%)
Cn1nnnc1NC(=O)c1ccc(C(F)(F)F)n2c(C(C)(C)C)nnc12 [2-027],"d: effect on crop, Glycine max",Glycine max,1 (Herbicidal ratio of 5% or more and less than 20%)
same,"b: effect on crop, directly sowed Oryza sativa",[1],4 (Herbicidal ratio of 70% or more and less than 90%)
same,"e: effect on crop, Triticum aestivum",Triticum aestivum,3 (Herbicidal ratio of 40% or more and less than 70%)
same,"f: effect on crop, Beta vulgaris ssp. vulgaris",[2],5 (Herbicidal ratio of 90% or more (almost completely withered))
same,"c: effect on crop, Zea mays",Zea mays,0 (Herbicidal ratio of 5% or less (almost no effect))
same,"g: effect on crop, Brassica campestris L.",Brassica campestris L.,4 (Herbicidal ratio of 70% or more and less than 90%)
same,b (effect on crop grade),[3],5 (Herbicidal ratio of 90% or more (almost completely withered))
same,C (Monochoria vaginalis) herbicidal ratio grade,Monochoria vaginalis,4 (Herbicidal ratio of 70% or more and less than 90%)
same,B (Scirpus juncoides) herbicidal ratio grade,Scirpus juncoides,4 (Herbicidal ratio of 70% or more and less than 90%)
Cc1nnc(NC(=O)c2ccc(C(F)(F)F)n3c(N4CC[S+]([O-])CC4)nnc23)o1 [1-119],d (Glycine max) effect on crop grade,Glycine max; [5],4 (Herbicidal ratio of 70% or more and less than 90%)
same,b (directly sowed Oryza sativa) effect on crop grade,[1]; [5],3 (Herbicidal ratio of 40% or more and less than 70%)
same,e (Triticum aestivum) effect on crop grade,Triticum aestivum; [4],3 (Herbicidal ratio of 40% or more and less than 70%)
same,f (Beta vulgaris ssp. vulgaris) effect on crop grade,[2]; [4],5 (Herbicidal ratio of 90% or more (almost completely withered))
same,c (Zea mays) effect on crop grade,Zea mays; [5],2 (Herbicidal ratio of 20% or more and less than 40%)
same,g (Brassica campestris L.) effect on crop grade,Brassica campestris L.; [4],5 (Herbicidal ratio of 90% or more (almost completely withered))
same,b (effect on crop grade),[3],3 (Herbicidal ratio of 40% or more and less than 70%)
same,C (Monochoria vaginalis) herbicidal ratio grade,Monochoria vaginalis,0 (Herbicidal ratio of 5% or less (almost no effect))
same,B (Scirpus juncoides) herbicidal ratio grade,Scirpus juncoides,1 (Herbicidal ratio of 5% or more and less than 20%)

# From patent publication US9708314B2, “Heterocyclic amide compound” (NISSAN CHEMICAL INDUSTRIES, LTD., priority 2013, dated 2017)
